The record followed here is paper PMC8657723, “Novel Pituitary Actions of TAC4 Gene Products in Teleost” (International Journal of Molecular Sciences, 2021).

The experiment deals with grass carp pituitary cells. The experiment is described as follows: Receptor antagonist / pathway inhibitor co-treatment on HK2-induced mRNA expression in grass carp pituitary cells. Type of experiment: cell-based, grass carp (Ctenopharyngodon idellus). As to conditions: 24 h co-treatment. On the procedure:
In this experiment, a pharmacological approach was used to clarify the receptor specificity for SLα and PRL regulation by HK2. Pituitary cells were incubated for 24 h with grass carp HK2 (1 μM) with simultaneous treatment of the NK1R antagonist Rolaptiant (10 μM) or NK3R antagonist SB222200 (10 μM), respectively.
Figure 7 The receptor specificity and signal transduction for PRL and SLα regulation by HK2 in grass carp pituitary cells. (A) Effects of NKR subtype-specific antagonists on HK2-induced PRL and SLα mRNA expression. Pituitary cells were challenged for 24 h with grass carp HK2 (1 μM) in the presence or absence of the NK1R antagonist Rolaptiant (10 μM) or NK3R antagonist SB22200 (10 μM), respectively. (B) Effects of 24-h co-treatment with AC inhibitor MDL12330A (10 μM) or PKA inhibitor H89 (10 μM) on HK2-induced PRL and SLα mRNA expression. (C) Effects of 24-h co-treatment with PLC inhibitor U73122, PKC inhibitor GF109203X (10 μM), or IP3 receptor blocker 2-APB (10 μM) on HK2-induced PRL and SLα mRNA expression. (D) Effects of 24-h co-treatment with the VSCC inhibitor nifedipine (10 μM), CaM antagonist calmidazolium (1 μM) or CaMK-II blocker KN62 (10 μM) on HK2-induced PRL and SLα mRNA expression. After drug treatment, the total RNA of the cells was extracted by the Trizol method, and the expression of various genes was detected by RT-PCR. Data presented were expressed as mean ± SEM, and the differences between groups were significant at p-value < 0.05 by labeling diverse letters.
Figure 8 The receptor specificity and signal transduction for CART2, NMB1, and UTS1 regulation by HK2 in grass carp pituitary cells. (A) The pituitary cells were treated for 24 h with grass carp HK2 (1 μM) in the presence or absence of NK1R antagonist Rolaptiant (10 μM) or NK3R antagonist SB222200 (10 μM). (B) Effects of 24-h co-treatment with an AC inhibitor MDL12330A (10 μM) or PKA inhibitor H89 (10 μM) on HK2-induced CART2, UTS1, or NMB1 mRNA expression. (C) Effects of 24h co-treatment with a PLC inhibitor U73122, PKC inhibitor GF109203X (10 μM), or IP3 receptor blocker 2-APB (10 μM) on HK2-induced CART2, UTS1 or NMB1 mRNA expression. (D) Effects of 24-h co-treatment with the VSCC inhibitor nifedipine (10 μM), CaM antagonist calmidazolium (1 μM), or CaMK-II blocker KN62 (10 μM) on HK2-induced CART2, UTS1 or NMB1 mRNA expression.

With `Clc1ccc(C(c2ccc(Cl)cc2)n2cc[n+](CC(OCc3ccc(Cl)cc3Cl)c3ccc(Cl)cc3Cl)c2)cc1` (stereo not drawn) [calmidazolium], for the setting “inhibitor 1 μM with HK2 1 μM”, the “effect on HK2-induced CART2 mRNA expression” value was “suppressed/totally abolished”, the “effect on HK2-induced NMB1 mRNA expression” value is listed as “suppressed/totally abolished”, the “effect on HK2-induced PRL mRNA expression” value was “suppressed or totally abolished” and the “effect on HK2-induced SLα mRNA expression” value is given as “suppressed or totally abolished”. Moreover, the “effect on HK2-induced UTS1 mRNA expression” value (inhibitor 1 μM with HK2 1 μM) is listed as “suppressed/totally abolished”.
Regarding `NCCOB(c1ccccc1)c1ccccc1` [2-APB], where the note is “inhibitor 10 μM with HK2 1 μM”, the “effect on HK2-induced CART2 mRNA expression” value is “effective in blocking”, the “effect on HK2-induced NMB1 mRNA expression” value is given as “effective in blocking”, the “effect on HK2-induced PRL mRNA expression” value is on record as “totally abolished” and the “effect on HK2-induced SLα mRNA expression” value is given as “totally abolished”. The “effect on HK2-induced UTS1 mRNA expression” value (inhibitor 10 μM with HK2 1 μM) is on record as “effective in blocking”.
Consider `COc1ccc2c(c1)CC[C@@H]1[C@@H]2CC[C@]2(C)[C@@H](NCCCCCCN3C(=O)C=CC3=O)CC[C@@H]12` [U73122], for which, under “inhibitor 10 μM with HK2 1 μM”, the “effect on HK2-induced CART2 mRNA expression” value was “effective in blocking”, the “effect on HK2-induced NMB1 mRNA expression” value is “effective in blocking”, the “effect on HK2-induced PRL mRNA expression” value was “totally abolished” and the “effect on HK2-induced SLα mRNA expression” value is recorded as “totally abolished”. Under “inhibitor 10 μM with HK2 1 μM”, the “effect on HK2-induced UTS1 mRNA expression” value is “effective in blocking”.
In the case of `C[C@@H](OC[C@@]1(c2ccccc2)CC[C@]2(CCC(=O)N2)CN1)c1cc(C(F)(F)F)cc(C(F)(F)F)c1` [Rolaptiant], where the note is “inhibitor 10 μM with HK2 1 μM”, the “effect on HK2-induced NMB1 mRNA expression” value is “not with the NK1R antagonist Rolaptiant”, the “effect on HK2-induced PRL mRNA expression” value is reported as “could not be totally abolished” and the “effect on HK2-induced SLα mRNA expression” value is reported as “only partially block”.
With `O=S(=O)(NCCNC/C=C/c1ccc(Br)cc1)c1cccc2cnccc12` [H89], for the setting “inhibitor 10 μM with HK2 1 μM”, the “effect on HK2-induced CART2 mRNA expression” value is given as “abolished”, the “effect on HK2-induced NMB1 mRNA expression” value is recorded as “abolished”, the “effect on HK2-induced PRL mRNA expression” value is reported as “effective in blocking” and the “effect on HK2-induced SLα mRNA expression” value was “effective in blocking”. Also, the “effect on HK2-induced UTS1 mRNA expression” value (inhibitor 10 μM with HK2 1 μM) is listed as “abolished”.
As to `Cl.c1ccc(C2CCCC2NC2=NCCCCCCCCCCC2)cc1` (stereo not drawn) [MDL12330A], for the setting “inhibitor 10 μM with HK2 1 μM”, the “effect on HK2-induced CART2 mRNA expression” value is “abolished”, the “effect on HK2-induced NMB1 mRNA expression” value was “abolished”, the “effect on HK2-induced PRL mRNA expression” value was “effective in blocking” and the “effect on HK2-induced SLα mRNA expression” value was “effective in blocking”. The “effect on HK2-induced UTS1 mRNA expression” value (inhibitor 10 μM with HK2 1 μM) is given as “abolished”.
As for `CN(C)CCCn1cc(C2=C(c3c[nH]c4ccccc34)C(=O)NC2=O)c2ccccc21` [GF109203X], for the setting “inhibitor 10 μM with HK2 1 μM”, the “effect on HK2-induced CART2 mRNA expression” value was “effective in blocking”, the “effect on HK2-induced NMB1 mRNA expression” value was “effective in blocking”, the “effect on HK2-induced PRL mRNA expression” value is recorded as “totally abolished” and the “effect on HK2-induced SLα mRNA expression” value is “totally abolished”. For the same compound, the “effect on HK2-induced UTS1 mRNA expression” value (inhibitor 10 μM with HK2 1 μM) is listed as “effective in blocking”.
As to `CC[C@H](NC(=O)c1c(C)c(-c2ccccc2)nc2ccccc12)c1ccccc1` [SB222200], for the setting “inhibitor 10 μM with HK2 1 μM”, the “effect on HK2-induced CART2 mRNA expression” value is on record as “totally abolished”, the “effect on HK2-induced NMB1 mRNA expression” value was “totally abolished”, the “effect on HK2-induced PRL mRNA expression” value is given as “could not be totally abolished” and the “effect on HK2-induced SLα mRNA expression” value is recorded as “totally blocked”. Besides, the “effect on HK2-induced UTS1 mRNA expression” value (inhibitor 10 μM with HK2 1 μM) was “totally abolished”.
On to `CN([C@@H](Cc1ccc(OS(=O)(=O)c2cccc3cnccc23)cc1)C(=O)N1CCN(c2ccccc2)CC1)S(=O)(=O)c1cccc2cnccc12` [KN62], for which, under “inhibitor 10 μM with HK2 1 μM”, the “effect on HK2-induced CART2 mRNA expression” value was “suppressed/totally abolished”, the “effect on HK2-induced NMB1 mRNA expression” value was “suppressed/totally abolished”, the “effect on HK2-induced PRL mRNA expression” value is “suppressed or totally abolished” and the “effect on HK2-induced SLα mRNA expression” value is given as “suppressed or totally abolished”. Further, the “effect on HK2-induced UTS1 mRNA expression” value (inhibitor 10 μM with HK2 1 μM) was “suppressed/totally abolished”.
`COC(=O)C1=C(C)NC(C)=C(C(=O)OC)C1c1ccccc1[N+](=O)[O-]` [nifedipine]: under “inhibitor 10 μM with HK2 1 μM”, the “effect on HK2-induced CART2 mRNA expression” value is given as “suppressed/totally abolished”, the “effect on HK2-induced NMB1 mRNA expression” value is given as “suppressed/totally abolished”, the “effect on HK2-induced PRL mRNA expression” value is reported as “suppressed or totally abolished” and the “effect on HK2-induced SLα mRNA expression” value was “suppressed or totally abolished”. Moreover, the “effect on HK2-induced UTS1 mRNA expression” value (inhibitor 10 μM with HK2 1 μM) is given as “suppressed/totally abolished”.
